Series [1] concerns S. gordonii biofilm. Briefly: Reduction of 1-day-developed biofilm, crystal violet (MBRC). The series is classed as cell-based, Streptococcus gordonii. To be noted: S. gordonii 1-day-developed biofilm, 24 h, 90% or more reduction. Here is the method: The effect of NAP on the 1-day-developed biofilm was examined by the minimum biofilm reduction concentration (MBRC). S. mutans, S. gordonii, or S. sanguinis (1 × 10^7CFU/mL, 200 μL/well) in BHIS was added to a 96-well polystyrene tissue culture plate. After anaerobic incubation at 37°C for 24 h, the supernatants were removed and washed with PBS three times without disrupting the integrity of biofilms. Fresh BHIS containing NAP ranging from 0.12 to 125 μg/mL were added to each well and incubated at 37°C for 24 h. The negative control was biofilms in BHIS without NAP. The biofilm was fixed, air-dried, stained, and quantified as described above.

On the set-up of series [2]: method as in PMID 28573435, PMID 31241371. To be noted: orally 240 mg twice a day, patients with advanced malignancies; cited from earlier work.

SMILES strings stand for the structures.

Take `[H]/N=C(\N/C(=N/[H])NCCCCCCNC(=N)NC(=N)Nc1ccc(Cl)cc1)Nc1ccc(Cl)cc1` [CHX, Chlorhexidine]: the MBRC in series [1] was 15.63 µg/mL. In series [1], `CC(=O)c1cc2c(o1)C(=O)c1ccccc1C2=O` [NAP, 2-acetylfuro-1,4-naphathoquinone] registered an MBRC of 15.63 µg/mL. Besides, the adverse events result in series [2] is listed as “generally mild”.

Source of the values: paper PMC7700029, “Repurposing Napabucasin as an Antimicrobial Agent against Oral Streptococcal Biofilms” (BioMed Research International, 2020).
